Test results taken from patent US20230190660A1, “ENCAPSULATED PHARMACEUTICAL COMPOSITIONS, RELATED METHODS OF MAKING, AND RELATED METHODS OF TREATMENT” (PATH, priority 2021, published 2023).

Assays:
[1] = test system: glucose levels; test: Pilot study: glucose levels in rats after oral ion-pair formulations or subQ insulin; assay type: in vivo; settings: subQ, 5 IU/kg
From the text: (§1) The present Example describes a) selection of the dosage presentation for the lead ion-pair and the dose (see TABLE 8, FIGS. 4 and 14A-14D) and b) validation of the lead ion-pair formulation in their ability to lower glucose levels upon oral administration of the formulations (see FIGS. 15A-15D). In part a) of the present Example, we compared the capsule and FDT presentation formats for both ion-pair formulations. We also included β-CD-encapsulated ion-pair complex to see whether the encapsulation of ion-pair within β-CD offers further improvement in absorption of insulin. Liquid insulin given subcutaneously (subQ) was used a comparator in both studies.

[2] = test system: glucose levels; test: Confirmation study: glucose levels in rats, additional doses; assay type: in vivo; settings: subQ, 5 IU/kg
From the text: as §1

[3] = test system: blood glucose levels; test: Glucose lowering in STZ diabetic rodent model; assay type: in vivo, Sprague Dawley rodents; settings: SC
Protocol: Briefly, the male Sprague Dawley rodents (200-250 grams) are fasted 4 hours before given 65 mg/kg intraperitoneal (IP) streptozotocin (STZ) to induce diabetes and randomized into treatment groups based on the post-STZ (˜1 week) baseline glucose levels (see TABLE 10). Only rodents with hyperglycemia (glycose levels […]) are used in the study. Rodents are housed on a 12-hour light/dark cycle with no more than 2 rats per cage depending on size and acclimatized for not less than 5 days. Blood glucose levels are measured using calibrated Glucocard Vital glycometers (Arkray, Minneapolis, Minn.) and levels are reported as mg/dL. For each timepoint, blood (<5 uL) is acquired from a tail snip and directly applied to a glucose test strip. Data for each quantitative timepoint is presented as the average+/−SEM (standard error of the mean). Differences between vehicle control and each treatment groups are determined by Student's t-test using GraphPad Prism (current version) with an alpha threshold of 0.05.
Insulin and blood glucose levels were measured before administration, at 30 minutes, 60 minutes, 90 minutes, 2 hours, 4 hours, 8 hours, and 24 hours after dosing.

[4] = Static gastrointestinal use testing (GUT) model, gastric fluid; settings: 30 minutes at 37° C.
From the text: The purpose of this evaluation was to test whether the bile-insulin ion-pair encapsulated within the resistant starch polymer is protected from pH and enzymatic degradation encountered in the gastrointestinal compartments. Since the in vivo feasibility of insulin FDTs is proposed in a diabetic rodent model, we scaled down the size of the FDTs based on limited size of the oral cavity in rats. We also included commercially available gelatin oral capsules fit for oral delivery to rats (FIGS. 12A and 12B). Biorelevant dissolution media simulating the pH and enzymatic conditions in the different sections of gastrointestinal tract, such as fasted state simulated gastric fluid (FASSFG), and intestinal fluid in the duodenum and jejunum (TABLE 7) were generated following the composition recipe reported by Jantratid et al. (2009).
Samples were incubated in the different fluid media maintained at 37° C. and at the 30-minute time point, removed and tested for insulin content. Unformulated insulin was used as a control for comparative evaluation (FIGS. 13A and 13B).

insulin
glucose levels ([1]; late time point (T=8 hours), similar to T=0): 600 mg/dL | glucose level ([1]; within the first hour (from 600 mg/dL)): 100 mg/dL | lowering of glucose levels ([1]; within the first hour of administration): about 80% | drop in glucose levels ([2]; T=1 hour): ~80% | glucose level ([2]; T=1 hour (from 600 mg/dL)): ~100 mg/dL | time after administration within which glucose levels rise [3]: ≤ 4 h | glucose lowering effect ([3]; compared to diabetic rodent levels): > 60% | degradation in the presence of gastric fluid [4]: degraded almost completely
